In patent US20240285634A1, “COMPOUND AND METHOD FOR TREATING CHEMOTHERAPY-ASSOCIATED GASTROINTESTINAL SIDE EFFECTS” (ONQUALITY PHARMACEUTICALS CHINA LTD., priority 2021, published 2024):
Structures can show the parent of a compound that is named as a salt.

What was measured:
[1] = tested on: Chemotherapeutic agent-caused constipation models of Balb/c mice; test: Relieving effect on constipation caused by a chemotherapeutic agent (Examples 202-364); assay type: in vivo; conditions: for feces reduction rates compared with the chemotherapeutic agent group: administered before the chemotherapeutic agent, Table 4 and FIG. 4
From the text: Construction of mouse animal models: Chemotherapeutic agent-caused constipation models of Balb/c mice were constructed according to the administration mode and frequency of the chemotherapeutic agent as shown in Table 4. […] Thus, chemotherapeutic agent-caused constipation models of mice are very good models to mimic constipation caused by the chemotherapeutic agent.
Balb/c mice were fed for 1 week, and then divided into groups. The experiment was divided into a control group, a chemotherapeutic agent group, and a group of the compound as shown in Formula I, each of which comprised 10 mice, to perform the administration experiment, for which the administration dosage, mode, time and frequency were shown in Table 4. The control group: being injected or intragastrically administered with the same solvent as that used in the group of the compound as shown in Formula I (the administration mode and time were shown in Table 4), and then being injected or intragastrically administered with the same solvent as that used in the chemotherapeutic agent group (the administration mode was shown in Table 4); the chemotherapeutic agent group: being injected or intragastrically administered with the same solvent as that used in the group of the compound as shown in Formula I (the administration mode and time was shown in Table 4), and then being injected or intragastrically administered with the chemotherapeutic agent (the type, administration mode and dosage were shown in Table 4); the group of the compound as shown in Formula I: being injected or intragastrically administered with the compound as shown in Formula I (the administration mode and time was shown in Table 4), and then being administered with the chemotherapeutic agent (the administration mode and dosage were shown in Table 4).
(§1) The feces reduction rate was calculated with reference to the method of Ji Eun Kim (Lab Anim Res. 2016 December; 32(4): 231-240.). Feces reduction rate (%)=(the control group−the chemotherapeutic agent group or the group of the compound as shown in Formula I)/the control group*100%
(§2) It is regarded as effective remission when the feces reduction rate of mice in the group of the compound as shown in Formula I is reduced compared with that in the chemotherapeutic agent group.
(§3) The feces amount of mice within 3 hours was observed and recorded every day. At the end of the experiment, the number of mice in the group of the compound as shown in Formula I whose feces reduction rate was lower than that of mice in the chemotherapeutic agent group was recorded. Table 4 lists various animal experiment combinations of chemotherapeutic agents and the compound as shown in Formula I, as well as the corresponding experimental results.

[2] = tested on: Balb/c mice, constipation caused by continuous administration of a chemotherapeutic agent; test: Relieving effect on constipation caused by the continuous administration of a chemotherapeutic agent (Examples 385-405); assay type: in vivo
From the text: Balb/c mice were fed for 1 week, and then divided into groups. The experiment was divided into a control group, a chemotherapeutic agent group, and a group of the compound as shown in Formula I, each of which comprised 10 mice, to perform the administration experiment, for which the administration dosage, mode, time and frequency were shown in Table 6. The control group: being injected or intragastrically administered with the same solvent as that used in the group of the compound as shown in Formula I (the administration mode and time were shown in Table 6), and then being injected or intragastrically administered with the same solvent as that used in the group of the compound as shown in Formula I (the administration mode was shown in Table 6); the chemotherapeutic agent group: being injected or intragastrically administered with the same solvent as that used in the group of the compound as shown in Formula I (the administration mode and time were shown in Table 6), and then being injected or intragastrically administered with the chemotherapeutic agent (the type, administration mode, time and dosage were shown in Table 6); the group of the compound as shown in Formula I: being injected or intragastrically administered with the compound as shown in Formula I (the administration mode and time were shown in Table 6), and then being administered with the chemotherapeutic agent (the type, administration mode, time and dosage were shown in Table 6).
as §1, §2
as §3, with “6” for “4”

[3] = continuous administration of fluorouracil for less than 7 days
[4] = continuous administration of the chemotherapeutic agent for 7 days or less

SMILES: O=C1NCC2(CCCCC2)n2c1cc1cnc(Nc3ccc(N4CCNCC4)cn3)nc12 [Compound II]
- Relative remission rate (%) ([1]; Example 283, Oxaliplatin intravenous injection 25 mg/kg single, compound intramuscular injection 100 mg/kg single, 1 h before chemotherapeutic agent, cycle 7 days): 50%
- Relative remission rate (%) ([1]; Example 284, Oxaliplatin intravenous injection 25 mg/kg single, compound intramuscular injection 100 mg/kg single, 6 h before chemotherapeutic agent, cycle 7 days): 30%
- Relative remission rate (%) ([1]; Example 285, Oxaliplatin intravenous injection 25 mg/kg single, compound intramuscular injection 100 mg/kg single, 12 h before chemotherapeutic agent, cycle 7 days): 30%
- Relative remission rate (%) ([1]; Example 347, Fluorouracil 100 (F), oxaliplatin 5 (O), irinotecan 100 (I) and tetrahydrofolic acid 100 (L) mg/kg intraperitoneal injection single, compound intravenous injection 100 mg/kg single, 0.5 h before chemotherapeutic agent, cycle 7 days): 70%
- Relative remission rate (%) ([1]; Example 348, Fluorouracil 100 (F), oxaliplatin 5 (O), irinotecan 100 (I) and tetrahydrofolic acid 100 (L) mg/kg intraperitoneal injection single, compound intravenous injection 100 mg/kg single, 2 h before chemotherapeutic agent, cycle 7 days): 50%
- Relative remission rate (%) ([1]; Example 359, Gemcitabine (GEM) intraperitoneal injection 120 mg/kg single, compound oral administration 100 mg/kg single, 12 h before chemotherapeutic agent, cycle 8 days): 40%
- Relative remission rate (%) ([1]; Example 361, Etoposide 60 (E) and carboplatin 5 (C) mg/kg intraperitoneal injection single, compound oral administration 100 mg/kg single, 2 h before chemotherapeutic agent, cycle 10 days): 60%
- Relative remission rate (%) ([1]; Example 364, Gemcitabine 120 (G) and carboplatin 5 (C) mg/kg intravenous injection single, compound oral administration 100 mg/kg single, 24 h before chemotherapeutic agent, cycle 8 days): 30%
- feces reduction rates compared with the chemotherapeutic agent group [1]: reduced to different degrees
- Relative remission rate (%) ([2]; Example 397, Fluorouracil (5-Fu) 100 mg/kg intraperitoneal injection once a day for 3 days, compound 100 mg/kg intraperitoneal injection once a day for 3 days, 0.5 h before the chemotherapeutic agent, experimental cycle 7 days): 20%
- relieving effects on constipation [2, 3]: significant relieving effects
- relieving effects on constipation [2, 4]: have relieving effects

SMILES: O=C1NCC2(CCCCC2)n2c1cc1cnc(Nc3ccc(N4CCC(N5CCOCC5)CC4)cn3)nc12 [Compound III]
- Relative remission rate (%) ([1]; Example 320, Fluorouracil 125 (F) and irinotecan 240 (I) mg/kg intraperitoneal injection single, compound subcutaneous injection 100 mg/kg single, 0.5 h before chemotherapeutic agent, cycle 7 days): 50%
- Relative remission rate (%) ([1]; Example 321, Fluorouracil 125 (F) and irinotecan 240 (I) mg/kg intraperitoneal injection single, compound subcutaneous injection 100 mg/kg single, 24 h before chemotherapeutic agent, cycle 7 days): 20%
- Relative remission rate (%) ([1]; Example 349, Fluorouracil 100 (F), oxaliplatin 5 (O), irinotecan 100 (I) and tetrahydrofolic acid 100 (L) mg/kg intraperitoneal injection single, compound oral administration 150 mg/kg single, 6 h before chemotherapeutic agent, cycle 7 days): 30%
- Relative remission rate (%) ([1]; Example 350, Fluorouracil 100 (F), oxaliplatin 5 (O), irinotecan 100 (I) and tetrahydrofolic acid 100 (L) mg/kg intraperitoneal injection single, compound oral administration 150 mg/kg single, 12 h before chemotherapeutic agent, cycle 7 days): 30%
- Relative remission rate (%) ([1]; Example 362, Etoposide 60 (E) and carboplatin 5 (C) mg/kg intraperitoneal injection single, compound oral administration 100 mg/kg single, 0.5 h before chemotherapeutic agent, cycle 10 days): 50%
- feces reduction rates compared with the chemotherapeutic agent group [1]: reduced to different degrees
- Relative remission rate (%) ([2]; Example 398, Fluorouracil (5-Fu) 100 mg/kg intraperitoneal injection once a day for 3 days, compound 100 mg/kg intravenous injection once a day for 3 days, 2 h before the chemotherapeutic agent, experimental cycle 7 days): 40%
- relieving effects on constipation [2, 3]: significant relieving effects
- relieving effects on constipation [2, 4]: have relieving effects

SMILES: CC(C)N1CCN(c2ccc(Nc3ncc4cc5n(c4n3)C3(CCCCC3)CNC5=O)nc2)CC1 [Compound IV hydrochloride, Lerociclibdihydrochloride]
- Relative remission rate (%) ([1]; Example 353, Fluorouracil 100 (F), oxaliplatin 5 (O), irinotecan 100 (I) and tetrahydrofolic acid 100 (L) mg/kg intraperitoneal injection single, compound intraperitoneal injection 100 mg/kg single, 0.5 h before chemotherapeutic agent, cycle 7 days): 20%
- Relative remission rate (%) ([1]; Example 354, Fluorouracil 100 (F), oxaliplatin 5 (O), irinotecan 100 (I) and tetrahydrofolic acid 100 (L) mg/kg intraperitoneal injection single, compound intraperitoneal injection 100 mg/kg single, 12 h before chemotherapeutic agent, cycle 7 days): 60%
- Relative remission rate (%) ([1]; Example 357, Topotecan intraperitoneal injection 10 mg/kg single, compound oral administration 100 mg/kg single, 24 h before chemotherapeutic agent, cycle 14 days): 30%
- Relative remission rate (%) ([1]; Example 358, Topotecan intravenous injection 20 mg/kg single, compound oral administration 100 mg/kg single, 12 h before chemotherapeutic agent, cycle 14 days): 70%
- Relative remission rate (%) ([2]; Example 400, Fluorouracil (5-Fu) 100 mg/kg intraperitoneal injection once a day for 3 days, compound intraperitoneal injection, 2 h before the chemotherapeutic agent, dosage cell prints 'Once a day, for 3 days', frequency cell 'Single', experimental cycle 7 days): 50%
- Relative remission rate (%) ([2]; Example 401, Fluorouracil (5-Fu) 100 mg/kg intraperitoneal injection once a day for 3 days, compound intraperitoneal injection, 12 h before the chemotherapeutic agent, dosage cell prints 'Once a day, for 3 days', frequency cell 'Single', experimental cycle 7 days): 30%

SMILES: CC(C)N1CCN(c2ccc(Nc3ncc4cc5n(c4n3)C3(CCCCC3)CNC5=O)nc2)CC1 [Compound IV, Lerociclib]
- Relative remission rate (%) ([1]; Example 246, Fluorouracil (5-Fu) intravenous injection 250 mg/kg single, compound oral administration 100 mg/kg single, 0.5 h before chemotherapeutic agent, cycle 10 days): 30%
- Relative remission rate (%) ([1]; Example 247, Fluorouracil (5-Fu) intravenous injection 250 mg/kg single, compound oral administration 100 mg/kg single, 4 h before chemotherapeutic agent, cycle 10 days): 60%
- Relative remission rate (%) ([1]; Example 248, Fluorouracil (5-Fu) intravenous injection 250 mg/kg single, compound oral administration 100 mg/kg single, 12 h before chemotherapeutic agent, cycle 10 days): 20%
- Relative remission rate (%) ([1]; Example 351, Fluorouracil 100 (F), oxaliplatin 5 (O), irinotecan 100 (I) and tetrahydrofolic acid 100 (L) mg/kg intraperitoneal injection single, compound oral administration 100 mg/kg single, 4 h before chemotherapeutic agent, cycle 7 days): 60%
- Relative remission rate (%) ([1]; Example 352, Fluorouracil 100 (F), oxaliplatin 5 (O), irinotecan 100 (I) and tetrahydrofolic acid 100 (L) mg/kg intraperitoneal injection single, compound oral administration 100 mg/kg single, 24 h before chemotherapeutic agent, cycle 7 days): 30%
- Relative remission rate (%) ([1]; Example 363, Gemcitabine and carboplatin intraperitoneal injection 120 mg/kg single, compound oral administration 100 mg/kg single, 4 h before chemotherapeutic agent, cycle 8 days): 60%
- feces reduction rates compared with the chemotherapeutic agent group [1]: reduced to different degrees
- Relative remission rate (%) ([2]; Example 399, Fluorouracil (5-Fu) 100 mg/kg intraperitoneal injection once a day for 3 days, compound 100 mg/kg oral administration once a day for 3 days, 4 h before the chemotherapeutic agent, experimental cycle 7 days): 50%
- relieving effects on constipation [2, 3]: significant relieving effects
- relieving effects on constipation [2, 4]: have relieving effects

SMILES: CN1CCN(c2ccc(Nc3ncc4cc5n(c4n3)C3(CCCCC3)CNC5=O)nc2)CC1 [Compound I hydrochloride, Trilaciclib dihydrochloride]
- Relative remission rate (%) ([1]; Example 315, Fluorouracil 125 (F) and irinotecan 240 (I) mg/kg intraperitoneal injection single, compound intraperitoneal injection 150 mg/kg single, 0.5 h before chemotherapeutic agent, cycle 10 days): 20%
- Relative remission rate (%) ([1]; Example 316, Fluorouracil 125 (F) and irinotecan 240 (I) mg/kg intraperitoneal injection single, compound intraperitoneal injection 150 mg/kg single, 4 h before chemotherapeutic agent, cycle 10 days): 60%
- Relative remission rate (%) ([1]; Example 317, Fluorouracil 125 (F) and irinotecan 240 (I) mg/kg intraperitoneal injection single, compound intraperitoneal injection 150 mg/kg single, 12 h before chemotherapeutic agent, cycle 10 days): 40%
- Relative remission rate (%) ([1]; Example 343, Fluorouracil 100 (F), oxaliplatin 5 (O), irinotecan 100 (I) and tetrahydrofolic acid 100 (L) mg/kg intravenous injection single, compound intraperitoneal injection 150 mg/kg single, 0.5 h before chemotherapeutic agent, cycle 8 days): 30%
- Relative remission rate (%) ([1]; Example 344, Fluorouracil 100 (F), oxaliplatin 5 (O), irinotecan 100 (I) and tetrahydrofolic acid 100 (L) mg/kg intravenous injection single, compound intraperitoneal injection 150 mg/kg single, 12 h before chemotherapeutic agent, cycle 8 days): 70%
- Relative remission rate (%) ([2]; Example 393, Fluorouracil (5-Fu) 100 mg/kg intraperitoneal injection once a day for 5 days, compound 150 mg/kg intraperitoneal injection once a day for 5 days, 0.5 h before the chemotherapeutic agent, experimental cycle 9 days): 70%
- Relative remission rate (%) ([2]; Example 394, Fluorouracil (5-Fu) 100 mg/kg intraperitoneal injection once a day for 5 days, compound 150 mg/kg intraperitoneal injection once a day for 5 days, 4 h before the chemotherapeutic agent, experimental cycle 9 days): 50%
- Relative remission rate (%) ([2]; Example 395, Fluorouracil (5-Fu) 100 mg/kg intraperitoneal injection once a day for 5 days, compound 150 mg/kg intraperitoneal injection once a day for 5 days, 12 h before the chemotherapeutic agent, experimental cycle 9 days): 30%
